{"source": "patent US8808751B2", "about": "“Methods for the preparation of biologically active compounds in nanoparticulate form” (Iceutica Pty Ltd., priority 2006, dated 2014)", "key": {"[1]": {"experiment": "Particle size from SEM/TEM images", "format": "physicochemical", "details": "for particle size (SEM/TEM): milled with NaCl, grinding compound removed by washing"}, "[2]": {"experiment": "Particle size distribution (dynamic light scattering)", "format": "physicochemical", "details": "washed dispersion, larger aggregates removed by centrifugation", "excerpt": "In a preferred form of the invention, about 90% of the particles have a particle size of less than about 500 nm. The particles distribution can be measured with dynamic light scattering of a dispersion of the particles with the aid of sonication, and after centrifugation at 500 rcf for 30 seconds to remove larger agglomerates from the dispersion. Other means to measure the particles size are for examples surface area measurements, and electron micrographs, which can be used to support the measured size distribution of the particles.\nThe size determined by SEM is in good agreement with the size distribution of the dispersion before drying by dynamic light scatter (DLS) (FIG. 10). Here the particles size was determined with a Malvern HPPS dynamic light scattering apparatus with a size distribution after number of 128±53 nm (number weighted) in intensity a second peak of 300 nm was detected. Prior to the measurement any larger aggregates or agglomerates were removed by 1 min centrifugation at 6000 g, and only the supernatant was analyzed."}, "[3]": {"experiment": "BET surface area", "format": "physicochemical", "details": "for BET surface area: raloxifene forms, milled with NaCl and washed (commercial: as obtained)"}, "[4]": {"experiment": "Dissolution in simulated intestinal fluid", "format": "physicochemical", "details": "simulated intestinal fluid (SIF), 60 mg in 1 L fluid, 90 minutes post addition", "procedure": "(§1) The dissolution properties of the particulate raloxifene hydrochloride were tested with a USP apparatus in simulated gastric conditions, and compared with commercial raloxifene hydrochloride. About 60 mg of particulate raloxifene hydrochloride and commercial raloxifene hydrochloride, respectively, were introduced into gelatin capsules. The dissolution properties were followed as a function of solution concentration versus time.\n(§2) As tested prior to administration to the dogs, the particulate raloxifene hydrochloride had the following properties: >75% of the particles were in the range of 220-350 nm in size, with >90% in the range of […]. […] At 90 minutes post addition, approximately 15 mg/L of particulate raloxifene was detected versus 8 mg/L of comparison API for SGF; and 4.5 mg/L versus 0.75 mg/L for SIF."}, "[5]": {"experiment": "Pharmacokinetics after oral capsule administration, crossover study", "format": "in vivo", "details": "12 beagle dogs", "procedure": "This study involved the investigation of the pharmacokinetics of raloxifene hydrochloride following oral administration of two dosage formulations to 12 male and female beagle dogs. The two dosage forms investigated were 1) raloxifene hydrochloride particles, developed according to the method of the present invention, and 2) standard API. Both forms were administered as capsules prepared by the Pharmaceutics laboratory of TetraQ.\nThe study was designed as a crossover trial conducted in 6 male and 6 female healthy Beagle dogs. Raloxifene was administered as an oral dose with three male plus three female dogs each receiving one of the two preparations on each of two dosing occasions. Eleven plasma samples were collected from each animal in the 24 hour period following each dose and these were all available for determination of raloxifene concentration.\nPlasma samples were transported to the TetraQ-ADME laboratories on dry ice and all were in an intact (frozen) condition upon arrival. The concentration of raloxifene in the plasma samples was determined by an LC-MS/MS assay developed and validated by TetraQ-ADME,\nPharmacokinetic analysis was performed using purpose-written macros for Excel Software. Standard model-independent pharmacokinetic methods were used. Nominal sampling times were used in the calculations. The plasma raloxifene concentrations were used to determine the following parameters: • (i) Cmax Maximum plasma concentration, read directly from the raw data. • (ii) Tmax Time at which Cmax was achieved, also read directly from the raw data. • (iii) ke Terminal elimination rate constant, which was determined as the slope of the regression line of best fit to the approximately log-linear terminal elimination phase (using the least squares linear regression function in the Excel 2003 software). […]"}, "[6]": {"experiment": "Dissolution in simulated gastric fluid (USP apparatus)", "format": "physicochemical", "details": "simulated gastric fluid (SGF), 60 mg in 1 L fluid, 90 minutes post addition", "procedure": "as §1\nThe dissolution conditions were as follows: 1 L of 0.1 M HCl containing 2 g of NaCl were degassed and brought to 37° C. in a USP conform dissolution vessel to paddle and stirred at about 80 rpm. […] For each time point, 2 mL of sample were removed from the solution, to remove larger aggregates it was centrifuged for 1 min at 10000 g and 1.5 ml was taken from the top of the solution and the concentration was measured using a Waters HPLC running a method validated with respect to specificity, linearity, precision and repeatability.\nas §2"}, "[7]": {"experiment": "Stability of drug on dry milling", "format": "physicochemical", "details": "dry milled with NaCl for 180 minutes; attributed to degradation of the drug", "procedure": "[drawing 3] was placed in a milling apparatus (a 70 cm^3 stainless steel ball mill container) with grinding compound in the form of 3.68 g of NaCl, thereby providing the mixture at 9.6 and 90.4 weight % respectively, corresponding to 15 and 85 volume %, with a total volume of 2 cm^3. Milling media comprising 40 g of 10 mm steel balls (10 pieces) were employed in the container. The milling apparatus was closed under house vacuum prior to milling. […] The mixture was dry milled for 15 minutes and 180 minutes, the composition resulting after milling for both times comprised olanzapine in nanoparticulate form dispersed in the grinding medium NaCl.\nMilling times assayed included 15 and 180 minutes in two separate milling runs. Analysis of the melting point of the nanoparticles produced at 180 minute milling time period confirmed that the resulting composition was olanzapine, with a melting point in the range of 200° C."}, "[8]": {"details": "15 vol % sample in NaCl, washed, stabilized with CTAB"}}, "note": "Structures can show the parent of a compound that is named as a salt."}
{"smiles": "O=C(O)Cc1ccccc1Nc1c(Cl)cccc1Cl", "note": "[DCA, diclofenac acid]", "values": [{"measurement": "nanoparticle size", "setting": "[1]; [8]", "result": "less than 200 nm"}, {"measurement": "size of the majority of nanoparticles", "setting": "[1]; [8]", "result": "30-50 nm"}, {"measurement": "nanoparticle diameter (TEM)", "setting": "[1]; milled with NH4Cl, washed with 0.01 M HCl and 1 mM CTAB", "result": "about 200 nm"}, {"measurement": "particle size (SEM/TEM)", "setting": "[1]", "result": "100-200 nm"}, {"measurement": "particle size by DLS (number weighted)", "setting": "[2]", "result": "160±30", "unit": "nm"}]}
{"smiles": "O=C(c1ccc(OCCN2CCCCC2)cc1)c1c(-c2ccc(O)cc2)sc2cc(O)ccc12", "note": "[Raloxifene Free Base]", "values": [{"measurement": "particle diameter calculated from BET surface area", "setting": "[3]; density of 1.2 g/cm^3", "result": 85, "unit": "nm"}, {"measurement": "particle diameter calculated from BET surface area", "setting": "[3]; density of 1.3 g/cm^3, assuming monodispersed nanoparticles", "result": "about 80 nm"}, {"measurement": "particle diameter calculated from BET surface area", "setting": "[3]; density of 1.4 g/cm^3", "result": 70, "unit": "nm"}, {"measurement": "BET surface area", "setting": "[3]", "result": "57.7178±0.4095", "unit": "m^2/g"}, {"measurement": "particle size (SEM/TEM)", "setting": "[1]", "result": "under 100 nm"}]}
{"smiles": "O=C(c1ccc(OCCN2CCCCC2)cc1)c1c(-c2ccc(O)cc2)sc2cc(O)ccc12", "note": "[Raloxifene HCl (Amorphous), raloxifene hydrochloride]", "values": [{"measurement": "BET surface area", "setting": "[3]; hydrochloride", "result": 10.6, "unit": "m^2/g"}, {"measurement": "particle size (SEM/TEM)", "setting": "[1]; hydrochloride", "result": "100-200 nm"}]}
{"smiles": "O=C(c1ccc(OCCN2CCCCC2)cc1)c1c(-c2ccc(O)cc2)sc2cc(O)ccc12", "note": "[commercial raloxifene hydrochloride, raloxifene hydrochloride]", "values": [{"measurement": "solution concentration detected (dissolution)", "setting": "[4]", "result": "~0.75", "unit": "mg/L"}, {"measurement": "BET surface area", "setting": "[3]; listed as commercial raloxifene HCl, hydrochloride", "result": 0.1, "unit": "m^2/g"}, {"measurement": "area under the concentration vs. time curve (AUC0-t)", "setting": "[5]; mean±SD", "result": "0.02136 ± 0.01679", "unit": "µg·h/mL"}, {"measurement": "Cmax", "setting": "[5]; both sexes, dog, plasma, mean±SD, read-out: maximum plasma concentration (Cmax)", "result": "7.69 ± 4.54", "unit": "ng/mL"}, {"measurement": "Tmax", "setting": "[5]; both sexes, dog, plasma, read-out: median time to maximum concentration (Tmax)", "result": 1.5, "unit": "h"}, {"measurement": "solution concentration detected (dissolution)", "setting": "[6]", "result": "~8", "unit": "mg/L"}]}
{"smiles": "Cc1cc2c(s1)Nc1ccccc1N=C2N1CCN(C)CC1", "note": "[olanzapine]", "values": [{"measurement": "appearance after milling (degradation)", "setting": "[7]", "result": "some decolourization"}]}
